Earlier results as cited in patent US7648982B2 (priority 2003, dated 2010).

What was measured:
[1] = in vivo
[2] = in vivo, iv

CN1CC[C@]23c4c5ccc(O)c4O[C@H]2[C@@H](O)C=C[C@H]3[C@H]1C5 [morphine]
K10 [1]: Morphine_K10 = 0.07051 | K12 [1]: Morphine_K12 = 0.1273 | K13 [1]: Morphine_K13 = 0.01826 | K21 [1]: Morphine_K21 = 0.02596 | K31 [1]: Morphine_K31 = 0.001633 | Ke0 [1]: Morphine_Ke0 = 0.005 | V1 [1]: Morphine_V1 = 17.8 | delay of peak drug effect from the time of injection [2]: 10 to 15 min
